Series [1] concerns the target T1, USP2^CD (purified catalytic domain of USP2) (Homo sapiens, UniProt O75604).
T1 construct: The purified catalytic domain of USP2 (USP2^CD, in-house purified); His; made in house; host or cells: E. coli BL21 Gold
T1 sequence (O75604 267-599 limits assumed): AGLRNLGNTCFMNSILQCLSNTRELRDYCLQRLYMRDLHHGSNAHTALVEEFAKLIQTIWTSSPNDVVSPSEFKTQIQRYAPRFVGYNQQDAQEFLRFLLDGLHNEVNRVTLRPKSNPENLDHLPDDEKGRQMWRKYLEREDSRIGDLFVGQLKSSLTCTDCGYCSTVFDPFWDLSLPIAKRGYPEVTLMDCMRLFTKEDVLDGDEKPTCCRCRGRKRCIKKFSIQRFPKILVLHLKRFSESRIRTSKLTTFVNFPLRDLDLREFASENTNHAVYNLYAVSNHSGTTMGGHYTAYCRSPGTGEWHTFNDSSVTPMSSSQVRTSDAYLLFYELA
Briefly: Inhibition of purified USP2^CD enzymatic activity (Ub-AMC or Ub-Rho substrate). The note with it: for inhibition of USP2^CD activity (IC50 range, FIG. 1): Ub-Rho substrate (0.1 μM); for inhibition at 1 µM: 1 μM compound; for inhibition at 5 µM: 5 μM compound; for inhibition at 25 µM: 25 μM compound; for inhibition at 50 µM: 50 μM compound; for inhibition at 0.01 µM: 0.01 μM compound; for inhibition at 0.05 µM: 0.05 μM compound; for inhibition at 0.1 µM: 0.1 μM compound; for inhibition at 0.5 µM: 0.5 μM compound; for inhibition at 10 µM: 10 μM compound. Type of series: biochemical. Put shortly: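 His-tagged catalytic domain expressed in E. coli and Ni/gel-filtration purified; assayed in 50 mM HEPES pH 7.6 or 40 mM Tris pH 7.4 with 1 mM DTT. Compound added just before Ub-AMC or Ub-Rho substrate; fluorescence from hydrolysis followed over 20 or 30 min, median of duplicates.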

The test system of series [2] is HEK293 cells. The series can be described thus: Cytotoxicity assay (PrestoBlue cell viability), HEK293. Type of series: cell-based. The note with it: Homo sapiens, 48 hours treatment. As for the experimental part:
Messa, Messa DX5, HCT116, HEK-293, PC-3, LNCaP, HCC827 and H1975 cell lines are issued from the American Type Culture Collection (ATCC).
Messa, Messa DX5 and HCT116 were maintained in McCoy's supplemented with 10% fetal bovine serum, and 1% penicillin/streptomycin. PC-3, LNCaP cells were maintained in RPMI medium supplemented with 10% fetal bovine serum, and 1% penicilin/streptomycin and in the case of Messa DX5: 500 nM Doxorubicin was added to maintain selection pressure. HEK293 were maintained in DMEM medium supplemented with 10% fetal bovine serum, and 1% penicillin/streptomycin. Cells were maintained at 37° C. with 5% CO2, 95% air, and humid atmosphere. In the case of hormonal dependent LNCaP cells, 2 μM DiHydroTestosterone (DHT) was added or not—depending on the type of biological assay—for the same incubation period as compounds.
For cytotoxicity assays, cells were seeded in 96-well microplates 24 hours before the addition of increasing concentrations of each compound in the culture medium. Cell viability was analyzed 48 hours following addition of each compound through the monitoring of mitochondrial […] activity using PrestoBlue® Cell Viability Reagent (Invitrogen; #A-13261). Paclitaxel was used as a control which is cytotoxic on various cancerous cells although not on chemoresistant MESSA DX5 lineage.

In series [3] the test system is LNCaP prostatic cancer cells. The series can be described thus: Cell growth inhibition and cell death induction (Incucyte), LNCaP. The following applies: 48 hours, FIG. 12E,F. In kind it is cell-based, human. An excerpt: FIG. 12: The cell growth inhibition and cell death induction of non-small cell lung cancers (NSCLC), HCC827 cells and derivative Gefitinib-resistant clone H1975 (FIG. 12 A,B) and of PC-3 (FIG. 12 C,D) and LnCAP (FIG. 12 E,F) were monitored using Incucyte microscope. Histogram represent in A,C,E: the final cell area relative to the total well area in (%) and in B,D,F: the fluorescent area in μm2. Error bars indicate standard deviation between 6 technical replicates.
The cell growth inhibition and cell death induction of non-small cell lung cancers (NSCLC), HCC827 cells and derivative Gefitinib-resistant clone H1975 were monitored during a period of 72 hours using Incucyte microscope and dedicated programs allowing to monitor cell confluency (i.e.: cell surface area relative to total well surface) and cell death induction by adding Propidium Iodide (PI) at 1 μg/ml (Sigma Aldrich #P4864) in the culture medium.

Series [4] is described as follows: Metabolic stability on human liver microsomes. Type of series: in vitro ADME. The following applies: 0.5 μM, up to 30 min; for cofactors (CYP)-mediated metabolism, human: with cofactors; for metabolism in the absence of cofactors, human: without cofactors. The procedure: Each compound was incubated either with cofactors (n=2) or without cofactors (n=1). Positive controls were: Diclofenac, Midazolam and Amitriptyline.

The mark [5] stands for this setting: Ub-AMC substrate at 1 μM, Table 2b, read-out: IC50 USP2 CD.

Structures are written as SMILES. Read-outs that look alike come from different tables or passages of the source.

A word on the IC50: it is the concentration at which inhibition is half-maximal. Usually EC50 stands for the concentration that produces a half-maximal response. High values mean lower potency in that assay, low ones higher potency in that assay. Take `CCCCS(=O)(=O)Cc1nc2c(nc1CS(=O)(=O)CCCC)C(=O)c1ccccc1C2=O` [PCR6236]: in series [1], 2100 nM corresponded to half-maximal inhibition (IC50) and the “inhibition of USP2^CD activity (IC50 range, FIG. 1)” value was “in the micromolar range”. For the same compound, a half-maximal response in series [2] (EC50) required 1400 nM. Besides, the “cell growth inhibition and cell death induction, LNCaP” value in series [3] was “inhibit cell growth and induce cell death in a dose dependent manner”. Besides, in series [4], the “cofactors (CYP)-mediated metabolism, human” value is “low” and the “metabolism in the absence of cofactors, human” value is reported as “No metabolism was observed”.
As usually defined, the inhibition is the change of the read-out against control, counted positive when it falls. Regarding `CCCCS(=O)(=O)Cc1nc2c(o1)C(=O)c1ccccc1C2=O` [PCR9301], in series [1] (Table 3a), the inhibition at 1 µM is 77%, the inhibition at 5 µM turned out to be 99%, the inhibition at 25 µM is 100% and the inhibition at 50 µM turned out to be 100%. The “inhibition of USP2^CD activity (IC50 range, FIG. 1)” value in series [1] is recorded as “in the micromolar range”. Further, in series [1] (Ub-Rho substrate, Table 3b, read-out: IC50 against purified USP2^CD), the IC50 is 400 nM. Besides, in series [4], the “cofactors (CYP)-mediated metabolism, human” value is listed as “not or poorly metabolized” and the “metabolism in the absence of cofactors, human” value is “No metabolism was observed”.
`O=C1c2ccccc2C(=O)c2nc(CS(=O)(=O)c3ccccc3F)c(CS(=O)(=O)c3ccccc3F)nc21` [OVM24]: in series [1] (Table 1c), the inhibition at 0.01 µM was -29%, the inhibition at 0.05 µM is 2%, the inhibition at 0.1 µM worked out at 9% and the inhibition at 0.5 µM was found to be 10%. For the same compound, in series [1] (Table 1c), the inhibition at 1 µM came to 12%, the inhibition at 5 µM turned out to be 20% and the inhibition at 10 µM worked out at 17%. In addition, in series [1] (Table 1b), the inhibition at 1 µM was 54%, the inhibition at 5 µM came out at 68%, the inhibition at 25 µM came to 86% and the inhibition at 50 µM worked out at 96%. In series [1] (setting [5]), the IC50 is above 10000 nM. The compound also had an EC50 in series [2] of 2500 nM. The “cell growth inhibition and cell death induction, LNCaP” value in series [3] was “inhibit cell growth and induce cell death in a dose dependent manner”.
With `CCCS(=O)(=O)Cc1nc2c(nc1CS(=O)(=O)CCC)C(=O)c1ccccc1C2=O` [VIN6074], in series [1] (Table 1c), the inhibition at 0.01 µM worked out at 1%, the inhibition at 0.05 µM is -13%, the inhibition at 0.1 µM is -23% and the inhibition at 0.5 µM came out at 23%. Moreover, in series [1] (Table 1c), the inhibition at 1 µM was found to be 17%, the inhibition at 5 µM came out at 70% and the inhibition at 10 µM was determined as 77%. Also, in series [1] (Table 1b), the inhibition at 1 µM was found to be 38%, the inhibition at 5 µM worked out at 81%, the inhibition at 25 µM stood at 98% and the inhibition at 50 µM was found to be 101%. In addition, the IC50 in series [1] (setting [5]) was 3000 nM. Besides, in series [1] (Ub-Rhodamine substrate at 0.1 μM, Table 2c, read-out: IC50 USP2 CD), the half-maximal inhibitory concentration (IC50) is 500 nM. In series [2], this compound yielded a concentration for a half-maximal effect (EC50) of 1500 nM. Further, in series [3], the “cell growth inhibition and cell death induction, LNCaP” value was “inhibit cell growth and induce cell death in a dose dependent manner”.

The values are drawn from patent US11306063B2, “Heterocyclic naphthoquinones derivatives for use in the treatment of cancers including Cushing disease” (Commissariat a l'Energie Atomique et aux Energies …, priority 2016, dated 2022).
